In patent US6962712B2, “Cosmetic or dermatological composition comprising of a combination of an elastase inhibitor of the N-acylaminoamide family and at least one antifungal agent or at least one antibacterial agent” (L'Oreal, priority 2001, dated 2005):

Experiments:
Staphylococcus epidermis [1] = assay: ex vivo bacteria/skin adhesion model, 3H-thymidine labelled bacteria on intact human skin (Example 8); type: cell-based; conditions: test product at 10%, 1 hour at 20° C., control (PBS) = 100%
Description: The activity of the honey on the adhesion of micro-organisms to the skin or to human mucous membranes was measured.
This ex vivo bacteria/skin adhesion model is based on the use of intact human skin mounted in a sandwich between a bottomless 96 wells plate and a Plexiglas support. The impervious individualized wells make it possible to test in a standard format the effect of acacia honey on the adhesion of Staphylococcus epidermis (resident bacteria) to the surface of the skin. The bacteria are radiolabelled in the growth phase by the incorporation of 3H-thymidine. This bacterial flora is then deposited in each well. After incubation for one hour at 20° C., the wells are washed three times with phosphate buffered saline (PBS) in order to remove the free bacteria. The acacia honey is then added at 5 and 10% and incubation allowed to proceed for 1 hour at 20° C. At the end of this incubation the content of each well is recovered and counted in scintillation fluid (desorbed bacteria). The wells are then washed with a chaotropic solution which leads to the elution of the adherent bacteria. The washing solutions are also counted in scintillation fluid (adherent bacteria). The positive and negative controls (Fucogel® acid (poly-[(α-1,3)-Fuc-(α-1,3)-Gal-(α-1,3)-galacturonic]) acid and Bioecolia® (Oligo-[α-1,4)-Gluc-(α-1,2)-Fruc-(α-1,6)-Gluc]) described in the publication of Wolf F. et al. (edition of 19th IFSCC Congress, Sydney, 1996) are included in the study as references.

Staphylococcus epidermis [2] = assay: ex vivo bacteria/skin adhesion model, 3H-thymidine labelled bacteria on intact human skin (Example 9); type: cell-based; conditions: for Adherent bacteria: control (PBS) = 100%
Description: The activity of resveratrol on the adhesion of micro-organisms to human skin or human mucous membranes was measured.
The activity of resveratrol (3,4′,5-trihydroxystilbene) on the adhesion of micro-organisms to human skin or human mucous membranes was tested in a bacteria/skin adhesion model, such as described below.
This ex vivo bacteria/skin adhesion model is based on the use of explants of intact human skin mounted in a sandwich between a bottomless 96 wells plate and a Plexiglas support.
This ex vivo bacteria/skin adhesion model is based on the use of intact human skin mounted in a sandwich between a bottomless 96 wells plate and a Plexiglas support. The impervious individualized wells make it possible to test in a standard format the effect of resveratrol on the adhesion of Staphylococcus epidermis (resident bacteria) to the surface of the skin. The bacteria are radiolabelled in the growth phase by the incorporation of 3H-thymidine. This bacterial flora is then deposited in each well. After incubation for one hour at 20° C., the wells are washed three times with phosphate buffered saline (PBS) in order to remove the free bacteria. The acacia honey is then added at 5 and 10% and incubation allowed to proceed for 1 hour at 20° C. At the end of this incubation the content of each well is recovered and counted in scintillation fluid (desorbed bacteria). The wells are then washed with a chaotropic solution which leads to the elution of the adherent bacteria. The washing solutions are also counted in scintillation fluid (adherent bacteria). A positive control (Fucogel® acid (poly-[(α-1,3)-Fuc-(α-1,3)-Gal-(α-1,3)-galacturonic]) acid is included in the study as reference.

[3] = target: T1, human leukocyte elastase (HLE) (Homo sapiens, UniProt P08246); assay: in vitro anti-elastase activity against human leukocyte elastase, substrate Me-OSAAPV-p-NA, spectrophotometry; type: biochemical; conditions: compound concentration 0.1%; HLE 40 milliunits per ml; 37° C., 60 minutes
T1 sequence (P08246 30-267): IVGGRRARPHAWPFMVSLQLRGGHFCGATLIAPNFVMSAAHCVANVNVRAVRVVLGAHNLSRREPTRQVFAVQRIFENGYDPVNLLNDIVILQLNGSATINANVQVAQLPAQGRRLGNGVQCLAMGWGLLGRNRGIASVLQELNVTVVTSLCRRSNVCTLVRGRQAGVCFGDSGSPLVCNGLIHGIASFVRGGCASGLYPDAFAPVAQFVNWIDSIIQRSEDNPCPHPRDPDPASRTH
Description: The anti-elastase activity of compounds according to the invention was determined in vitro against human leukocyte elastase (HLE)
The test was performed in the following manner:
A substrate Me-OSAAPV-p-NA (methyl-O-succinate alanine alanine proline valine-p-nitroanilide) to which is added the HLE (40 milliunits per ml) and 0.1% of the test compound is incubated at 37° C. for 60 minutes.
The % of inhibition of the elastase activity tested is then determined by spectrophotometry.

[4] = system: surviving human skins irradiated by UVA; assay: surviving human skins irradiated by UVA (8 J/cm2), morphometry of elastin fibres and collagen (Example 6); conditions: UVA 8 J/cm2 once, 5 μl of compound at 0.2% in ethanol every two days, 7 days at 37° C.
Description: The activity of the compound of Example 2 was evaluated on irradiated surviving human skins irradiated by UVA (8 J/cm2).
The test is performed in the following manner:
Fragments of normal human skin derived from four different donors are deposited in inserts placed in culture wells. Culture medium supplemented with antibiotics is added to the bottom of the wells. Passage by slow diffusion occurs between the two compartments through the intermediary of a porous membrane (pore size: 12 μm).
The culture medium is renewed every three days.
Every two days 5 μl of the test compound previously dissolved at 0.2% in ethanol are added to the skin fragments.
The skins are maintained in survival for 7 days at 37° C.
The skins are irradiated once only at 8 J/cm2 (Vilbert-Lourmat RMX-3W lamp).
The elastin fibres are stained blue with (+) catechol and quantified morphometrically by computer-assisted image analysis. The mean percentage dermal surface area occupied by the elastin fibres was thus evaluated.

[5] = Staphylococcus, read-out: % of inhibition of adhesion of the bacteria

With “poly-[(α-1,3)-Fuc-(α-1,3)-Gal-(α-1,3)-galacturonic]) acid [Fucogel ®]” the Adherent bacteria (Staphylococcus epidermis [1]) was 12%, the Desorbed bacteria (Staphylococcus epidermis [1]) was 257% and the Adherent bacteria (Staphylococcus epidermis [2]; test product at 10%) was 42%.

CC(=O)OCCNC(=O)C(C(C)C)N(Cc1ccccc1)C(C)=O (centres unmarked) [Compound D, [2-(acetyl-benzyl-amino)-3-methyl-butyrylamino]ethyl acetate] was tested, and the “% inhibition of elastase activity tested” value [3] was 13%.

For CC(=O)N(c1cccc(C(F)(F)F)c1)C(C(=O)NCC(=O)O)C(C)C (centres unmarked) [Compound A, {2-[acetyl-(3-trifluoromethyl-phenyl)-amino]-3-methyl-butyrylamino}acetic acid], the “Morphometric analysis of elastin fibres (superficial dermis)” value ([4]; untreated 6.75%, UVA alone 3.9%) was 6.8% and the “Morphometric analysis of collagen (superficial dermis)” value ([4]; untreated 87%, UVA alone 81%) was 92%.

For Oc1ccc(C=Cc2cc(O)cc(O)c2)cc1 [resveratrol, 3,4′,5-trihydroxystilbene], the Adherent bacteria (Staphylococcus epidermis [2]; 0.1 μM) was 71%, the Adherent bacteria (Staphylococcus epidermis [2]; 10 μM) was 64% and the inhibition at 0.1 µM (Staphylococcus epidermis [2]; [5]) was 29%. The inhibition at 10 µM (Staphylococcus epidermis [2]; [5]) was 36%.

With CCOP(=O)(CC(=O)N(Cc1ccccc1)C(C(=O)NCCOC(C)=O)C(C)C)OCC (centres unmarked) [Compound B, (2-{benzyl-[(diethoxy-phosphoryl)-acetyl]-amino}-3-methyl-butyryl-amino)ethyl acetate] the “% inhibition of elastase activity tested” value [3] was 17%.

For “Oligo-[α-1,4)-Gluc-(α-1,2)-Fruc-(α-1,6)-Gluc] [Bloé´colia ®]”, the Adherent bacteria (Staphylococcus epidermis [1]) was 76%, the Desorbed bacteria (Staphylococcus epidermis [1]) was 89% and the Adherent bacteria (Staphylococcus epidermis [1]; listed as Bioecolia®) was “no significant effect on adhesion”.
